Measured values reported in US20160291027A1, “METHODS FOR […] ABILITY OF A Z[…] COMPOUND TO TREAT CANCER” (Eisai R&D Management Co., Ltd., priority 2007, published 2016).

Experiments:
Assay type in all cases: cell-based
[1] = system: cell lines which carried a BRAF V600E mutation; experiment: Cell growth assay (CellTiter-Glo or methylene blue) in solid cancer cell lines; conditions: 96 hours, 0.3-10000 nM
Procedure: In a separate experiment, Compounds 091 and 106 were tested in solid cancer cell lines from different tissue types (shown in FIG. 3B for 21 cell lines for compound 091 and 19 cell lines for compound 106). All cell lines were introduced into 96-well plates and grown in the absence or continuous presence of 0.3-10000 nM of either compound 091 or compound 106 for 96 hours. Cell growth was assessed using a CellTiter-Glo® Luminescent Cell Viability Assay (Promega) or a methylene blue assay. IC50 values were determined as the concentration of a substance which inhibits cell growth by 50% compared to untreated cell populations.

[2] = system: IL-6 secretion by LOX human melanoma cells; experiment: IL-6 secretion by LOX melanoma cells (ELISA); conditions: 24 hours
Procedure: (§1) Compound 106 (5.0 mg) was weighed and dissolved in 100% anhydrous DMSO (dimethyl sulfoxide, Sigma-Aldrich®, St. Louis, Mo.) to produce a 10 mmol/L stock solution of 3.89 mg/mL. Aliquots of the 10 mmol/L stock solution were stored at −80° C. Then, on each day of an experiment, an aliquot of the stock solution was thawed and diluted 1:10 by adding RPMI-1640 culture medium to obtain a 1 mmol/L solution. Four serial 1:10 dilutions were made from 1 mmol/L working solution by adding 10% DMSO in RPMI-1640 culture medium to obtain 4 additional working solutions. Each of these working stock solutions was further diluted with culture media to obtain diluted working solutions ranging from 1 nmol/L to 10,000 nmol/L. Five mL of each of these diluted working solutions was added to each dish.
(§2) LOX human melanoma cells were originally obtained from the DCTD Tumor Repository (Frederick, Md.). The cells were grown in monolayer cultures in RPMI-1640 growth media containing 10% fetal bovine serum (FBS) at 37° C. in a 5% CO2 humidified incubator.
(§3) LOX human melanoma cells were plated at 1×10^6 cells into 100 mm dishes. After 48 hours, cells were washed three times with phosphate buffered saline (PBS) and were cultured with RPMI-1640 medium containing 0.1% FBS for another 24 hours. After removing the cell culture medium, fresh RPMI-1640 medium containing Compound 106 (1, 10, 100, 1000, or 10,000 nmol/L) was added to each culture dish and incubated for 24 hours (see Table 5). The control received 0.1% DMSO in RPMI-1640 culture medium alone to measure spontaneous secretion of IL-6 and IL-8. Three separate experiments were performed in duplicate to calculate the mean±SEM.
(§4) After a 24 hour incubation with Compound 106 or 0.1% DMSO, 5 mL of cell culture supernatant was collected. Any particulate material was removed by centrifugation. All samples were stored in the −80° C. freezer until analysis. Human IL-6 or IL-8 was determined using an ELISA kit (Human IL-8 ELISA Set, Catalog No. 555244, BD Biosciences, San Diego, Calif. and Human IL-6 ELISA Set, Catalog No. 555220, BD Biosciences, San Diego, Calif.) with the assay procedure provided by the kits. Absorbance was read on a VERSAMAX™ (Molecular Devices, now part of MDS Analytical Technologies, Sunnyvale Calif.).
(§5) After removing the cell culture supernatant, 1.0 mL of trypsin was added to the cells for 3 minutes, and then 4 mL of media containing 10% FBS was added for cell counting. Cells were counted using a hematocytometer (Bright Line Counting Chamber, Hausser Scientific, Horsham, Pa.) with a depth of 0.1 mm. The total number of cells was calculated as follows:
(§6) Total number of cells in 5 mL=C×10^4/mL×5 mL(C: actual cell count in 1 mm^2)
(§7) The level of IL-6 or IL-8 was determined as ng/1×10^6 cells. Inhibition of IL-6 or IL-8 secretion by Compound 106 was expressed as percent of control using the formula below:
(§8) Percent of control=(value of treatment−mean value of blank)/(value of control−mean value of blank)×100
(§9) The software, Graphpad Prism® (ver. 4, San Diego, Calif.) was used for calculation of mean IC50 values.

[3] = system: IL-8 secretion by LOX human melanoma cells; experiment: IL-8 secretion by LOX melanoma cells (ELISA); conditions: 24 hours
Procedure: as §1, §2, §3, §4, §5, §6, §7, §8, §9

In the case of CCNc1cc(O)c2c(c1)/C=C/C[C@H](O)[C@H](O)C(=O)/C=C\[C@@H](C)[C@H](C)OC2=O [Compound 106], the “Sensitivity of BRAF V600E cell lines (concentration range)” value [1] is reported as “low-nM or sub-μM concentration range”, the “IL-6 (ng/million cells) Mean” value ([2]; 1 nmol/L) is reported as 9.9 ng/million cells and the “IL-6 (pg/million cells) Experiment 1” value ([2]; 1 nmol/L) is reported as 5890 pg/million cells. For the same compound, the “IL-6 (pg/million cells) Experiment 2” value ([2]; 1 nmol/L) was 13741 pg/million cells, the “IL-6 (pg/million cells) Experiment 3” value ([2]; 1 nmol/L) was 10140 pg/million cells and the “Protein level of IL-6, Percent (%) of control Experiment 1” value ([2]; 1 nmol/L) was 46.1%. For the same compound, the “Protein level of IL-6, Percent (%) of control Experiment 2” value ([2]; 1 nmol/L) was 53.6%, the “Protein level of IL-6, Percent (%) of control Experiment 3” value ([2]; 1 nmol/L) was 115.0% and the “IL-6 (ng/million cells) Mean” value ([2]; 10 nmol/L) was 8.7 ng/million cells. For the same compound, the “IL-6 (pg/million cells) Experiment 1” value ([2]; 10 nmol/L) was 3253 pg/million cells, the “IL-6 (pg/million cells) Experiment 2” value ([2]; 10 nmol/L) was 12105 pg/million cells and the “IL-6 (pg/million cells) Experiment 3” value ([2]; 10 nmol/L) was 10745 pg/million cells. For the same compound, the “Protein level of IL-6, Percent (%) of control Experiment 1” value ([2]; 10 nmol/L) was 21.5%, the “Protein level of IL-6, Percent (%) of control Experiment 2” value ([2]; 10 nmol/L) was 47.1% and the “Protein level of IL-6, Percent (%) of control Experiment 3” value ([2]; 10 nmol/L) was 121.3%. The “IL-6 (ng/million cells) Mean” value ([2]; 100 nmol/L) was 0.5 ng/million cells, the “IL-6 (pg/million cells) Experiment 1” value ([2]; 100 nmol/L) was 347 pg/million cells and the “IL-6 (pg/million cells) Experiment 2” value ([2]; 100 nmol/L) was 643 pg/million cells. The “IL-6 (pg/million cells) Experiment 3” value ([2]; 100 nmol/L) was 485 pg/million cells, the “Protein level of IL-6, Percent (%) of control Experiment 1” value ([2]; 100 nmol/L) was 2.9% and the “Protein level of IL-6, Percent (%) of control Experiment 2” value ([2]; 100 nmol/L) was 2.5%. For the same compound, the “Protein level of IL-6, Percent (%) of control Experiment 3” value ([2]; 100 nmol/L) was 5.5%, the “IL-6 (ng/million cells) Mean” value ([2]; 1,000 nmol/L) was 0.6 ng/million cells and the “IL-6 (pg/million cells) Experiment 1” value ([2]; 1,000 nmol/L) was 547 pg/million cells. The “IL-6 (pg/million cells) Experiment 2” value ([2]; 1,000 nmol/L) was 986 pg/million cells, the “IL-6 (pg/million cells) Experiment 3” value ([2]; 1,000 nmol/L) was 257 pg/million cells and the “Protein level of IL-6, Percent (%) of control Experiment 1” value ([2]; 1,000 nmol/L) was 4.6%. The “Protein level of IL-6, Percent (%) of control Experiment 2” value ([2]; 1,000 nmol/L) was 3.8%, the “Protein level of IL-6, Percent (%) of control Experiment 3” value ([2]; 1,000 nmol/L) was 2.9% and the “IL-6 (ng/million cells) Mean” value ([2]; 10,000 nmol/L) was 0.2 ng/million cells. For the same compound, the “IL-6 (pg/million cells) Experiment 1” value ([2]; 10,000 nmol/L) was 165 pg/million cells, the “IL-6 (pg/million cells) Experiment 2” value ([2]; 10,000 nmol/L) was 337 pg/million cells and the “IL-6 (pg/million cells) Experiment 3” value ([2]; 10,000 nmol/L) was 132 pg/million cells. The “Protein level of IL-6, Percent (%) of control Experiment 1” value ([2]; 10,000 nmol/L) was 1.3%, the “Protein level of IL-6, Percent (%) of control Experiment 2” value ([2]; 10,000 nmol/L) was 1.3% and the “Protein level of IL-6, Percent (%) of control Experiment 3” value ([2]; 10,000 nmol/L) was 1.6%. It also gave an activity at 0.001 µM ([2]; Homo sapiens, LOX, 1 nmol/L, read-out: Protein level of IL-6, Mean % of control) of 72.2%, an activity at 0.01 µM ([2]; Homo sapiens, LOX, 10 nmol/L, read-out: Protein level of IL-6, Mean % of control) of 65% and an activity at 0.1 µM ([2]; Homo sapiens, LOX, 100 nmol/L, read-out: Protein level of IL-6, Mean % of control) of 3.6%. For the same compound, the activity at 1 µM ([2]; Homo sapiens, LOX, 1,000 nmol/L, read-out: Protein level of IL-6, Mean % of control) was 3.8%, the activity at 10 µM ([2]; Homo sapiens, LOX, 10,000 nmol/L, read-out: Protein level of IL-6, Mean % of control) was 1.4% and the IC50 ([2]; Homo sapiens, LOX melanoma cell line, read-out: mean calculated IC50, IL-6 protein level) was 0.0218 µM. The “IL-8 (ng/million cells) Mean” value ([3]; 1 nmol/L) was 128.8 ng/million cells, the “IL-8 (pg/million cells) Experiment 1” value ([3]; 1 nmol/L) was 112318 pg/million cells and the “IL-8 (pg/million cells) Experiment 2” value ([3]; 1 nmol/L) was 213228 pg/million cells. The “IL-8 (pg/million cells) Experiment 3” value ([3]; 1 nmol/L) was 60753 pg/million cells, the “Protein level of IL-8, Percent (%) of control Experiment 1” value ([3]; 1 nmol/L) was 106.9% and the “Protein level of IL-8, Percent (%) of control Experiment 2” value ([3]; 1 nmol/L) was 123.9%. The “Protein level of IL-8, Percent (%) of control Experiment 3” value ([3]; 1 nmol/L) was 163.4%, the “IL-8 (ng/million cells) Mean” value ([3]; 10 nmol/L) was 60.2 ng/million cells and the “IL-8 (pg/million cells) Experiment 1” value ([3]; 10 nmol/L) was 47049 pg/million cells. The “IL-8 (pg/million cells) Experiment 2” value ([3]; 10 nmol/L) was 90632 pg/million cells, the “IL-8 (pg/million cells) Experiment 3” value ([3]; 10 nmol/L) was 42942 pg/million cells and the “Protein level of IL-8, Percent (%) of control Experiment 1” value ([3]; 10 nmol/L) was 44.8%. For the same compound, the “Protein level of IL-8, Percent (%) of control Experiment 2” value ([3]; 10 nmol/L) was 52.7%, the “Protein level of IL-8, Percent (%) of control Experiment 3” value ([3]; 10 nmol/L) was 115.5% and the “IL-8 (ng/million cells) Mean” value ([3]; 100 nmol/L) was 3.1 ng/million cells. For the same compound, the “IL-8 (pg/million cells) Experiment 1” value ([3]; 100 nmol/L) was 3079 pg/million cells, the “IL-8 (pg/million cells) Experiment 2” value ([3]; 100 nmol/L) was 3249 pg/million cells and the “IL-8 (pg/million cells) Experiment 3” value ([3]; 100 nmol/L) was 3101 pg/million cells. The “Protein level of IL-8, Percent (%) of control Experiment 1” value ([3]; 100 nmol/L) was 2.9%, the “Protein level of IL-8, Percent (%) of control Experiment 2” value ([3]; 100 nmol/L) was 1.9% and the “Protein level of IL-8, Percent (%) of control Experiment 3” value ([3]; 100 nmol/L) was 8.3%. The “IL-8 (ng/million cells) Mean” value ([3]; 1,000 nmol/L) was 2.4 ng/million cells, the “IL-8 (pg/million cells) Experiment 1” value ([3]; 1,000 nmol/L) was 3390 pg/million cells and the “IL-8 (pg/million cells) Experiment 2” value ([3]; 1,000 nmol/L) was 2273 pg/million cells. The “IL-8 (pg/million cells) Experiment 3” value ([3]; 1,000 nmol/L) was 1494 pg/million cells, the “Protein level of IL-8, Percent (%) of control Experiment 1” value ([3]; 1,000 nmol/L) was 3.2% and the “Protein level of IL-8, Percent (%) of control Experiment 2” value ([3]; 1,000 nmol/L) was 1.3%. The “Protein level of IL-8, Percent (%) of control Experiment 3” value ([3]; 1,000 nmol/L) was 4.0%, the “IL-8 (ng/million cells) Mean” value ([3]; 10,000 nmol/L) was 2.9 ng/million cells and the “IL-8 (pg/million cells) Experiment 1” value ([3]; 10,000 nmol/L) was 5179 pg/million cells. For the same compound, the “IL-8 (pg/million cells) Experiment 2” value ([3]; 10,000 nmol/L) was 1384 pg/million cells, the “IL-8 (pg/million cells) Experiment 3” value ([3]; 10,000 nmol/L) was 2179 pg/million cells and the “Protein level of IL-8, Percent (%) of control Experiment 1” value ([3]; 10,000 nmol/L) was 4.9%. The “Protein level of IL-8, Percent (%) of control Experiment 2” value ([3]; 10,000 nmol/L) was 0.8%, the “Protein level of IL-8, Percent (%) of control Experiment 3” value ([3]; 10,000 nmol/L) was 5.9% and the activity at 0.001 µM ([3]; Homo sapiens, LOX, 1 nmol/L, read-out: Protein level of IL-8, Mean % of control) was 131%. The activity at 0.01 µM ([3]; Homo sapiens, LOX, 10 nmol/L, read-out: Protein level of IL-8, Mean % of control) was 71%, the activity at 0.1 µM ([3]; Homo sapiens, LOX, 100 nmol/L, read-out: Protein level of IL-8, Mean % of control) was 4.4% and the activity at 1 µM ([3]; Homo sapiens, LOX, 1,000 nmol/L, read-out: Protein level of IL-8, Mean % of control) was 2.9%. For the same compound, the activity at 10 µM ([3]; Homo sapiens, LOX, 10,000 nmol/L, read-out: Protein level of IL-8, Mean % of control) was 3.9% and the IC50 ([3]; Homo sapiens, LOX melanoma cell line, read-out: mean calculated IC50, IL-8 protein level) was 0.0105 µM.
